For the experiment, the system named is SU-DHL-4 cells. The experiment can be described thus: Inhibitory effect on cell viability (Cell Counting Kit-8). Format: cell-based. The following applies: Homo sapiens, 72 hours culture with test compound, concentration showing 90% inhibition rate of cell viability. An outline of the steps: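 IC90 corresponds to 90% loss of viability, measured as CCK-8 absorbance at 450 nm (2-3 h colour development). Compounds in 9 dilutions (0.1% DMSO) were applied for 72 h at 37° C to SU-DHL-4 lymphoma cells seeded at 2000/well in RPMI1640/10% FBS after 18-25 h preculture.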
(Formazan colour is commonly taken as a measure of viable cells.)

Where a name gives a salt, the structure may show the parent alone.

Compound `CCC(=O)N1c2ccccc2[C@H](Nc2ccc(C(=O)N3CCn4c(-c5ccc(N[C@@H]6C[C@H](C)N(C(=O)CC)c7ccccc76)cc5)cnc4C3)cc2)C[C@@H]1C` [Compound 3e, 1-[(2S,4R)-2-Methyl-4-({4-[3-(4-{[(2S,4R)-2-methyl-1-propionyl-1,2,3,4-tetrahydroquinolin-4-yl]amino}phenyl)-5,6,7,8-tetrahydroimidazo[1,2-a]pyrazine-7-carbonyl]phenyl}amino)-3,4-dihydroquinolin-1(2H)-yl]propan-1-one] came in with a 90% effect concentration (IC90) of 0.12 nM. This lies in the sub-nanomolar range.
Compound `CCC(=O)N1c2ccccc2[C@H](Nc2ccc(C(=O)N3CCn4cc(-c5ccc(N[C@@H]6C[C@H](C)N(C(=O)CC)c7ccccc76)cc5)nc4C3)cc2)C[C@@H]1C` [Compound 3f, 1-[(2S,4R)-2-Methyl-4-({4-[2-(4-{[(2S,4R)-2-methyl-1-propionyl-1,2,3,4-tetrahydroquinolin-4-yl]amino}phenyl)-5,6,7,8-tetrahydroimidazo[1,2-a]pyrazine-7-carbonyl]phenyl}amino)-3,4-dihydroquinolin-1(2H)-yl]propan-1-one] yielded an IC90 of 0.33 nM.
Then `CCC(=O)N1c2ccccc2[C@H](Nc2ccc(SCCNC(=O)c3ccc(N[C@@H]4C[C@H](C)N(C(=O)CC)c5ccccc54)cc3)cc2)C[C@@H]1C` [Compound 4f, 4-{[(2S,4R)-2-Methyl-1-propionyl-1,2,3,4-tetrahydroquinolin-4-yl]amino}-N-{2-[(4-{[(2S,4R)-2-methyl-1-propionyl-1,2,3,4-tetrahydroquinolin-4-yl]amino}phenyl)thio]ethyl}benzamide], with 1.19 nM; and `CCC(=O)N1c2ccccc2[C@H](Nc2ccc(NC(=O)c3coc(Nc4ccc(N[C@@H]5C[C@H](C)N(C(=O)CC)c6ccccc65)cc4)n3)cc2)C[C@@H]1C` [Compound 5a, N-(4-(((2S,4R)-2-Methyl-1-propionyl-1,2,3,4-tetrahydroquinolin-4-yl)amino)phenyl)-2-((4-(((2S,4R)-2-methyl-1-propionyl-1,2,3,4-tetrahydroquinolin-4-yl)amino)phenyl)amino)oxazole-4-carboxamide], with 2.15 nM; and `CCC(=O)N1c2ccccc2[C@H](Nc2ccc(CN3CCn4cc(-c5ccc(N[C@@H]6C[C@H](C)N(C(=O)CC)c7ccccc76)cc5)nc4C3)cc2)C[C@@H]1C` [Compound 5b, 1-((2S,4R)-2-Methyl-4-((4-((2-(4-(((2S,4R)-2-methyl-1-propionyl-1,2,3,4-tetrahydroquinolin-4-yl)amino)phenyl)-5,6-dihydroimidazo[1,2-a]pyrazin-7(8H)-yl)methyl)phenyl)amino)-3,4-dihydroquinolin-1(2H)-yl)propan-1-one], with 39.6 nM.
Then `CCC(=O)N1c2ccccc2[C@H](Nc2ccc(Cc3cnc4n3CCN(Cc3ccc(N[C@@H]5C[C@H](C)N(C(=O)CC)c6ccccc65)cc3)C4)cc2)C[C@@H]1C` [Compound 5c, 1,1′-((2S,2′S,4R,4′R)-((((5,6-Dihydroimidazo[1,2-a]pyrazine-3,7(8H)-diyl)bis(methylene))bis(4,1-phenylene))bis(azanediyl))bis(2-methyl-3,4-dihydroquinoline-4,1(2H)-diyl))bis(propan-1-one)], with 63.6 nM.
Then `CCC(=O)N1c2ccccc2[C@H](Nc2ccc(NC(=O)CNCC(=O)Nc3ccc(N[C@@H]4C[C@H](C)N(C(=O)CC)c5ccccc54)cc3)cc2)C[C@@H]1C` [Compound 5d, 2,2′-Azanediylbis(N-(4-(((2S,4R)-2-methyl-1-propionyl-1,2,3,4-tetrahydroquinolin-4-yl)amino)phenyl)acetamide)], with 0.67 nM; and `CCC(=O)N1c2ccccc2[C@H](Nc2ccc(CNC3CN(C(=O)c4ccc(N[C@@H]5C[C@H](C)N(C(=O)CC)c6ccccc65)cc4)C3)cc2)C[C@@H]1C` [Compound 5e, 1-((2S,4R)-2-Methyl-4-((4-(((1-(4-(((2S,4R)-2-methyl-1-propionyl-1,2,3,4-tetrahydroquinolin-4-yl)amino)benzoyl)azetidin-3-yl)amino)methyl)phenyl)amino)-3,4-dihydroquinolin-1(2H)-yl)propan-1-one], with 5.93 nM; and `CCC(=O)N1c2ccccc2[C@H](Nc2ccc(CNCCn3cc(-c4ccc(N[C@@H]5C[C@H](C)N(C(=O)CC)c6ccccc65)cc4)cn3)cc2)C[C@@H]1C` [Compound 5f, 1-((2S,4R)-2-Methyl-4-((4-(((2-(4-(4-(((2S,4R)-2-methyl-1-propionyl-1,2,3,4-tetrahydroquinolin-4-yl)amino)phenyl)-1H-pyrazol-1-yl)ethyl)amino)methyl)phenyl)amino)-3,4-dihydroquinolin-1(2H)-yl)propan-1-one], with 24.7 nM.
The compound `CCC(=O)N1c2ccccc2[C@H](Nc2ccc(CNCc3nnc(-c4ccc(N[C@@H]5C[C@H](C)N(C(=O)CC)c6ccccc65)cc4)o3)cc2)C[C@@H]1C` [Compound 5g, 1-((2S,4R)-2-Methyl-4-((4-((((5-(4-(((2S,4R)-2-methyl-1-propionyl-1,2,3,4-tetrahydroquinolin-4-yl)amino)phenyl)-1,3,4-oxadiazol-2-yl)methyl)amino)methyl)phenyl)amino)-3,4-dihydroquinolin-1(2H)-yl)propan-1-one] gave a concentration for an effect of 90% (IC90) of 2.53 nM.
With `CCC(=O)N1c2ccccc2[C@H](Nc2ccc(CNCc3cn(-c4ccc(N[C@@H]5C[C@H](C)N(C(=O)CC)c6ccccc65)cc4)nn3)cc2)C[C@@H]1C` [Compound 5h, 1-((2S,4R)-2-Methyl-4-((4-((((1-(4-(((2S,4R)-2-methyl-1-propionyl-1,2,3,4-tetrahydroquinolin-4-yl)amino)phenyl)-1H-1,2,3-triazol-4-yl)methyl)amino)methyl)phenyl)amino)-3,4-dihydroquinolin-1(2H)-yl)propan-1-one], the 90% effect level (IC90) was put at 0.12 nM.
Regarding `CCC(=O)N1c2ccccc2[C@H](Nc2ccc(CNCC(=O)Nc3ccc(N[C@@H]4C[C@H](C)N(C(=O)CC)c5ccccc54)cc3)cc2)C[C@@H]1C` [Compound 5i, 2-((4-(((2S,4R)-2-Methyl-1-propionyl-1,2,3,4-tetrahydroquinolin-4-yl)amino)benzyl)amino)-N-(4-(((2S,4R)-2-methyl-1-propionyl-1,2,3,4-tetrahydroquinolin-4-yl)amino)phenyl)acetamide hydrochloride], the IC90 stood at 4.49 nM.
As for `CCC(=O)N1c2ccccc2[C@H](Nc2ccc(NC(=O)CN3CC=C(c4ccc(N[C@@H]5C[C@H](C)N(C(=O)CC)c6ccccc65)cc4)CC3)cc2)C[C@@H]1C` [Compound 5k, N-(4-(((2S,4R)-2-Methyl-1-propionyl-1,2,3,4-tetrahydroquinolin-4-yl)amino)phenyl)-2-(4-(4-(((2S,4R)-2-methyl-1-propionyl-1,2,3,4-tetrahydroquinolin-4-yl)amino)phenyl)-3,6-dihydropyridin-1(2H)-yl)acetamide], the figure is 7.48 nM; as for `CCC(=O)N1c2ccccc2[C@H](Nc2ccc(NC(=O)CCS(=O)(=O)c3ccc(N[C@@H]4C[C@H](C)N(C(=O)CC)c5ccccc54)cc3)cc2)C[C@@H]1C` [Compound 5l, N-(4-(((2S,4R)-2-Methyl-1-propionyl-1,2,3,4-tetrahydroquinolin-4-yl)amino)phenyl)-3-((4-(((2S,4R)-2-methyl-1-propionyl-1,2,3,4-tetrahydroquinolin-4-yl)amino)phenyl)sulfonyl)propanamide], 37 nM; as for `CCC(=O)N1c2ccccc2[C@H](Nc2ccc(NC(=O)CC[S+]([O-])c3ccc(N[C@@H]4C[C@H](C)N(C(=O)CC)c5ccccc54)cc3)cc2)C[C@@H]1C` (stereo partly drawn) [Compound 5m, N-(4-(((2S,4R)-2-Methyl-1-propionyl-1,2,3,4-tetrahydroquinolin-4-yl)amino)phenyl)-3-((4-(((2S,4R)-2-methyl-1-propionyl-1,2,3,4-tetrahydroquinolin-4-yl)amino)phenyl)sulfinyl)propanamide], 0.59 nM.
Compound `CCC(=O)N1c2ccccc2[C@H](Nc2ccc(OCCNC(=O)c3ccc(N[C@@H]4C[C@H](C)N(C(=O)CC)c5ccccc54)cc3)cc2)C[C@@H]1C` [Compound 5n, 4-(((2S,4R)-2-Methyl-1-propionyl-1,2,3,4-tetrahydroquinolin-4-yl)amino)-N-(2-(4-(((2S,4R)-2-methyl-1-propionyl-1,2,3,4-tetrahydroquinolin-4-yl)amino)phenoxy)ethyl)benzamide] had an IC90 of 8.83 nM.
On to `CCC(=O)N1c2ccccc2[C@H](Nc2ccc(NC(=O)COCC(=O)Nc3ccc(N[C@@H]4C[C@H](C)N(C(=O)CC)c5ccccc54)cc3)cc2)C[C@@H]1C` [Compound 5o, 2,2′-Oxybis(N-(4-(((2S,4R)-2-methyl-1-propionyl-1,2,3,4-tetrahydroquinolin-4-yl)amino)phenyl)acetamide)], for which the 90% effect level (IC90) was put at 0.14 nM.
As for `CCC(=O)N1c2ccccc2[C@H](Nc2ccc(OCCCNC(=O)c3ccc(N[C@@H]4C[C@H](C)N(C(=O)CC)c5ccccc54)cc3)cc2)C[C@@H]1C` [Compound 5p, 4-(((2S,4R)-2-Methyl-1-propionyl-1,2,3,4-tetrahydroquinolin-4-yl)amino)-N-(3-(4-(((2S,4R)-2-methyl-1-propionyl-1,2,3,4-tetrahydroquinolin-4-yl)amino)phenoxy)propyl)benzamide], the figure is 2.68 nM.
Then `CCC(=O)N1c2ccccc2[C@H](Nc2ccc(Cc3cnc4n3CCN(C(=O)c3ccc(N[C@@H]5C[C@H](C)N(C(=O)CC)c6ccccc65)cc3)C4)cc2)C[C@@H]1C` [Compound 5q, 1-((2S,4R)-2-Methyl-4-((4-((7-(4-(((2S,4R)-2-methyl-1-propionyl-1,2,3,4-tetrahydroquinolin-4-yl)amino)benzoyl)-5,6,7,8-tetrahydroimidazo[1,2-a]pyrazin-3-yl)methyl)phenyl)amino)-3,4-dihydroquinolin-1(2H)-yl)propan-1-one], with 0.11 nM; and `CCC(=O)N1c2ccccc2[C@H](Nc2ccc(CCCC(=O)Nc3ccc(N[C@@H]4C[C@H](C)N(C(=O)CC)c5ccccc54)cc3)cc2)C[C@@H]1C` [Compound 5r, N,4-Bis(4-(((2S,4R)-2-methyl-1-propionyl-1,2,3,4-tetrahydroquinolin-4-yl)amino)phenyl)butanamide], with 1.78 nM.

Broadly, the IC90 is the concentration needed for an effect of 90%.
